For data set [1], the target named is T1, androgen receptor (AR) splicing variant AR-v7 (Homo sapiens, UniProt P10275).
T1 construct: The degradation activity of compounds on AR-v7 in 22RV1 cells; host or cells: 22RV1 cells
T1 sequence (P10275 1-644 isoform P10275-3): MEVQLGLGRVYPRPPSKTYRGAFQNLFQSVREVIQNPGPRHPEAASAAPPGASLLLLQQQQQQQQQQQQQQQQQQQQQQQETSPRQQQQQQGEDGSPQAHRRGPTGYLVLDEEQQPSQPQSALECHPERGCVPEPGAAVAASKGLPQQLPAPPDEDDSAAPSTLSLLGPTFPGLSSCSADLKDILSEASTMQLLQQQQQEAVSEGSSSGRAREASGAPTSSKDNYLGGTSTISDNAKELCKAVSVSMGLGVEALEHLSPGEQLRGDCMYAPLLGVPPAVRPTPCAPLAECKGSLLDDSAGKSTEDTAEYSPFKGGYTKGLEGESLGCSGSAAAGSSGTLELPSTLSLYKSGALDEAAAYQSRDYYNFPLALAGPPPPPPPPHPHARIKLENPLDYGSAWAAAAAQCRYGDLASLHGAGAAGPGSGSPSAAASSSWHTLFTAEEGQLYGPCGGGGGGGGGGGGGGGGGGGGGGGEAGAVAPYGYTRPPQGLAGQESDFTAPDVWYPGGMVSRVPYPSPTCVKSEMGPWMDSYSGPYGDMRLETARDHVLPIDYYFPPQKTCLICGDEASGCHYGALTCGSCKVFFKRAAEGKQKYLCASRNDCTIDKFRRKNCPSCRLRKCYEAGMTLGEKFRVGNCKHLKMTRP
The data set is described as follows: Degradation activity on androgen receptor splicing variant AR-v7 in 22RV1 cells (ELISA). The class given is cell-based. As to conditions: AR-v7 degradation in 22RV1 cells, 48 h, class symbols.

Data set [2] in a line: Pharmacokinetics in mice (plasma exposure after oral administration). The class given is in vivo. The conditions noted are these: mouse, ICR mice, oral (i.g.) 3 mg/kg, read-out: After oral administration of 3 mg/kg, mouse plasma exposure AUCinf. The protocol:
• LC-20AD high performance liquid chromatography (SHIMADZU, Japan) • API4000 triple quadrupole mass spectrometer (Applied Biosystem, USA) • Phenix Winnolin Pharmacokinetic software (Version 6.3, Certara, USA) • High speed freezing centrifuge (Thermo Fisher Scientific) • Analytical balance (Sartorius, SECURA225D-ICN) • ICR mice (Chengdu Dossy Experimental Animals CO., LTD.)
A suitable amount of drug was accurately weighed, and then the medium (5% DMSO, 15% HS-15, 80% DSW) was added to prepare the solution at a concentration of 0.1 mg/ml (i.v.) and 0.3 mg/ml (i.g.).
18 healthy adult ICR mice were divided into two groups (9 mice for i.v. group; 9 mice for i.g. group), and administered by tail vein or by gavage after fasting overnight (free drinking water); using the satellite blood collection method, 3 animals were collected at each time point, and then 0.1 ml of blood obtained at different time points was anticoagulated with EDTA-K2, centrifuged at 4° C. for 5 min to separate the plasma, and stored at −80° C. for detection. The sampling time points after i.v. administration were 5 min, 15 min, 0.5 h, 1 h, 2 h, 4 h, 8 h, 12 h, and 24 h; while the sampling time points for i.g. group were before administration (0 h) as well as 0.5 h, 1 h, 2 h, 4 h, 6 h, 8 h, 12 h, and 24 h after administration. Then, the drug concentration in plasma was determined by LC/MS/MS.

The molecule `CC(C)(c1ccc(OCc2ccnc(N3CC4(COC4)C3)n2)cc1)c1ccc(C(=O)NCCNc2ccc3c(c2)C(=O)N(C2CCC(=O)NC2=O)C3=O)cc1` (centres unmarked) [Example 501] yielded a 50% degradation concentration (DC50) in data set [1] of 11 to 100 nM. Further, the AUC(0-inf) in data set [2] was in the range of 1000 to 5000 ng·h/mL.

`CC(C)(c1ccc(OCc2ccnc(N3CC4(CNC4)C3)n2)cc1)c1ccc(O[C@H]2C[C@H](Nc3ccc4c(c3)C(=O)N(C3CCC(=O)NC3=O)C4=O)C2)cc1` (some centres unmarked) [Example 82, 5-(((1r,3r)-3-(4-(2-(4-((2-(2,6-diazaspiro[3.3]heptan-2-yl)pyrimidin-4-yl)methoxy)phenyl)propan-2-yl)phenoxy)cyclobutyl)amino)-2-(2,6-dioxopiperidin-3-yl)isoindolin-1,3-dione]: the half-maximal degradation concentration (DC50) in data set [1] lay in the range of 11 to 100 nM. The AUC(0-inf) in data set [2] lay in the range of 100 to 1000 ng·h/mL. In the same order, the values of `O=C1CCC(N2C(=O)c3ccc(N[C@H]4C[C@H](Oc5ccc(Oc6ccc(Oc7ncc(-n8nccn8)cn7)cc6)cc5)C4)cc3C2=O)C(=O)N1` (stereo partly drawn) [Example 122, 5-(((trans)-3-(4-(4-((5-(2H-1,2,3-triazol-2-yl)pyrimidin-2-yl)oxy)phenoxy)phenoxy)cyclobutyl)amino)-2-(2,6-dioxopiperidin-3-yl)isoindolin-1,3-dione] are 11 to 100 nM and 5000 to 30000 ng·h/mL. In the same order, the values of `Cc1nc(-c2cnc(Oc3ccc(C(C)(C)c4ccc(O[C@H]5C[C@@H](Nc6ccc7c(c6)C(=O)N(C6CCC(=O)NC6=O)C7=O)C5)cc4)cc3)cn2)no1` (some centres unmarked) [Example 598, 2-(2,6-dioxopiperidin-3-yl)-5-(((1s,3s)-3-(4-(2-(4-((5-(5-methyl-1,2,4-oxadiazol-3-yl)pyrazin-2-yl)oxy)phenyl)propan-2-yl)phenoxy)cyclobutyl)amino)isoindolin-1,3-dione] are 11 to 100 nM and 5000 to 30000 ng·h/mL. For the molecule `Cc1noc(-c2ccc(Oc3ccc(C(C)(C)c4ccc(O[C@H]5C[C@H](Nc6ccc7c(c6)C(=O)N(C6CCC(=O)NC6=O)C7=O)C5)cc4)cc3)cn2)n1` (some centres unmarked) [Example 582], the DC50 in data set [1] lay in the range of 11 to 100 nM. Also, in data set [2], the AUC(0-inf) fell in the range of 1000 to 5000 ng·h/mL. For the molecule `CC(C)(c1ccc(Oc2ccnc(-n3nccn3)c2)cc1)c1ccc(O[C@H]2C[C@H](Nc3ccc4c(c3)C(=O)N(C3CCC(=O)NC3=O)C4=O)C2)cc1` (some centres unmarked) [Example 164], the half-maximal degradation concentration (DC50) in data set [1] fell in the range of 11 to 100 nM. The AUC(0-inf) in data set [2] fell in the range of 5000 to 30000 ng·h/mL. `Cc1nnc(-c2ccc(Oc3ccc(C(C)(C)c4ccc(O[C@H]5C[C@H](Nc6ccc7c(c6)C(=O)N(C6CCC(=O)NC6=O)C7=O)C5)cc4)cc3)nn2)o1` (some centres unmarked) [Example 330] came in with a DC50 in data set [1] of 11 to 100 nM. The AUC(0-inf) in data set [2] lay in the range of 5000 to 30000 ng·h/mL.

On to `C=CC(c1ccc(Oc2ncc(-n3nccn3)cn2)cc1)c1ccc(O[C@H]2C[C@H](Nc3ccc4c(c3)C(=O)N(C3CCC(=O)NC3=O)C4=O)C2)cc1` (some centres unmarked) [Example 370, 5-(((1r,3r)-3-(4-(1-(4-((5-(2H-1,2,3-triazole-2-yl)pyrimidin-2-yl)oxy)phenyl)allyl)phenoxy)cyclobutyl)amino)-2-(2,6-dioxopiperidin-3-yl)isoindolin-1,3-dione], for which the DC50 in data set [1] lay in the range of 11 to 100 nM. The AUC(0-inf) in data set [2] is 5000 to 30000 ng·h/mL.

For the molecule `Cc1noc(-c2cccc(COc3ccc(C(C)(C)c4ccc(O[C@H]5C[C@H](Nc6ccc7c(c6)C(=O)N(C6CCC(=O)NC6=O)C7=O)C5)cc4)cc3)n2)n1` (some centres unmarked) [Example 282], the DC50 in data set [1] lay within 11 to 100 nM. In data set [2], the AUC(0-inf) fell in the range of 1000 to 5000 ng·h/mL. In the same order, the values of `CC(C)(c1ccc(OCc2ccnc(O[C@@H]3CCNC3)n2)cc1)c1ccc(O[C@H]2C[C@@H](Nc3ccc4c(c3)C(=O)N(C3CCC(=O)NC3=O)C4=O)C2)cc1` (some centres unmarked) [Example 242] are 11 to 100 nM and 100 to 1000 ng·h/mL. Taken in the same sequence, the figures for `Cc1nnc(-c2nnc(Oc3ccc(C(C)(C)c4ccc(O[C@H]5C[C@H](Nc6ccc7c(c6)C(=O)N(C6CCC(=O)NC6=O)C7=O)C5)cc4)cc3)s2)o1` (some centres unmarked) [Example 593] were 11 to 100 nM and 5000 to 30000 ng·h/mL. For `CC(C)(c1ccc(OCc2ccnc(NCC3CNC3)n2)cc1)c1ccc(O[C@H]2C[C@@H](Nc3ccc4c(c3)C(=O)N(C3CCC(=O)NC3=O)C4=O)C2)cc1` (some centres unmarked) [Example 406], the AUC(0-inf) in data set [2] lay in the range of 100 to 1000 ng·h/mL.

By DC50 is commonly meant the concentration at which degradation of the target reaches its halfway point.

These data come from patent publication US20250051347A1, “BIFUNCTIONAL CHIMERIC HETEROCYCLIC COMPOUND AND USE THEREOF AS ANDROGEN RECEPTOR DEGRADER” (Hinova Pharmaceuticals, Inc., priority 2021, published 2025).
